Reference: ChEMBL document CHEMBL1140855, “Design, synthesis, and binding affinities of potential positron emission tomography (PET) ligands with optimal lipophilicity for brain imaging of the dopamine D3 receptor. Part II” (Bioorg Med Chem, 2009)

Assays:
[1] = Lipophilicity, log P of the compound; format: physicochemical; settings: octanol/water
D(3) dopamine receptor = D(3) dopamine receptor (Homo sapiens, UniProt P35462)
Description: Displacement of [3H]spiroperidol from human cloned dopamine D3 receptor by liquid scintillation counting

[2] = Dissociation constant, pKa of the compound; format: physicochemical
[3] = Lipophilicity, log P at pH 7.4; format: physicochemical; settings: buffer
D(2) dopamine receptor = D(2) dopamine receptor (Homo sapiens, UniProt P14416)
Sequence of D(2) dopamine receptor (P14416 whole entry): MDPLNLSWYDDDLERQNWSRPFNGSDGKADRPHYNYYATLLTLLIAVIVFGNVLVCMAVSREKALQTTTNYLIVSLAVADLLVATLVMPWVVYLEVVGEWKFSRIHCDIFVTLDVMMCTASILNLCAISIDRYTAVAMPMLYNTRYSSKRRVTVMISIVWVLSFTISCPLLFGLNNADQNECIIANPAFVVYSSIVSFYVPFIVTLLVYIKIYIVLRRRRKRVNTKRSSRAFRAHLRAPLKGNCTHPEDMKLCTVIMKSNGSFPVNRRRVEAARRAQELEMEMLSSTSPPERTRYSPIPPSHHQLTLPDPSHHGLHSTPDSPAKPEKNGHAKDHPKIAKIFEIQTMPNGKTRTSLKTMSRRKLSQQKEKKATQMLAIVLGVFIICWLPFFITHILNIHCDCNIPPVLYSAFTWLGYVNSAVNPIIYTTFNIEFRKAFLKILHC
Description: Displacement of [3H]spiroperidol from human cloned dopamine D2L receptor by liquid scintillation counting

Sequence of D(3) dopamine receptor (P35462 whole entry): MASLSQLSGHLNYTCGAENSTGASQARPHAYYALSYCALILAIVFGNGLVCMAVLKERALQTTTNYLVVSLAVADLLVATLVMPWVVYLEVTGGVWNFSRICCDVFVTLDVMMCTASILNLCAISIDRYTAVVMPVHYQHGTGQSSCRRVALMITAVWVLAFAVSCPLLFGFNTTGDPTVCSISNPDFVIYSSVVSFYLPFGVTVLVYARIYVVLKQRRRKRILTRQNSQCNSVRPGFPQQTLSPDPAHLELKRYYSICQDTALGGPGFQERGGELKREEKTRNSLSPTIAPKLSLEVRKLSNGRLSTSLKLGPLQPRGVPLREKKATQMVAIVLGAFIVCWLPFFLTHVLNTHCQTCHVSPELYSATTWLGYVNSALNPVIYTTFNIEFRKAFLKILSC

Row | SMILES | logP [1] | Ki (D(3) dopamine receptor) [nM] | pKa [2] | logD [3] | Ki (D(2) dopamine receptor) [nM]
1 | COc1ccccc1N1CCN(CCCCNC(=O)c2ccc(-n3ccnc3)cc2)CC1 | 3.1 | 4.23 | 8.05 | 2.39 | 51.7
2 | CCCN(CCC)C1CCc2cc(CS(=O)(=O)c3ccc(OC)cc3)ccc2C1 (configuration not stated) |  | 1.3 |  |  | 
3 | COc1ccccc1N1CCN(CCCCNC(=O)c2ccc3nonc3c2)CC1 | 2.79 | 4.7 | 7.78 | 2.26 | 31
4 | COc1ccc(N2CCN(CCCCNC(=O)c3ccc4nonc4c3)CC2)cc1 | 2.77 | 6220 | 7.51 | 2.41 | > 1000
5 | COc1ccccc1N1CCN(CCCNC(=O)c2ccc3nonc3c2)CC1 | 2.66 | > 1000 | 7.43 | 2.34 | 89.4
6 | O=C(NCCCCN1CCN(c2ccccc2OCCF)CC1)c1ccc(-n2ccnc2)cc1 | 2.9 | 2.95 | 7.74 | 2.4 | 5.92
7 | COc1ccc(N2CCN(CCCCNC(=O)c3ccc(-n4ccnc4)cc3)CC2)cc1 | 2.8 | 211 | 7.64 | 2.37 | > 1000
8 | COc1cc(F)cc(N2CCN(CCCCNC(=O)c3ccc4nonc4c3)CC2)c1 | 3.34 | 658 | 7.34 | 3.12 | 1340
9 | COc1cccc(N2CCN(CCCCNC(=O)c3ccc4nonc4c3)CC2)c1 | 2.8 | 170 | 7.44 | 2.48 | > 100
10 | O=C(NCCCCN1CCN(c2cccc(OCCF)c2)CC1)c1ccc(-n2ccnc2)cc1 | 2.9 | 47.2 | 7.56 | 2.51 | 196
11 | O=C(NCCCCN1CCN(c2cccc(OCCF)c2)CC1)c1ccc2nonc2c1 | 2.87 | 226 | 7.47 | 2.53 | > 1000
12 | COc1ccccc1N1CCN(CCCCOc2ccc(C3CN4C=CSC4=N3)cc2)CC1 (configuration not stated) |  | 0.12 |  |  | 
13 | COc1ccccc1N1CCN(CCCNC(=O)c2ccc(-n3ccnc3)cc2)CC1 | 2.59 | 95.3 | 7.53 | 2.22 | 121
14 | COc1cccc(N2CCN(CCCCNC(=O)c3ccc(-n4ccnc4)cc3)CC2)c1 | 2.93 | 19.9 | 7.59 | 2.51 | 243
15 | COc1cc(F)cc(N2CCN(CCCCNC(=O)c3ccc(-n4ccnc4)cc3)CC2)c1 | 3.16 | 29.2 | 7.52 | 2.8 | 133
16 | O=C(NCCCCN1CCN(c2ccccc2OCCF)CC1)c1ccc2nonc2c1 | 2.79 | 22.1 | 7.78 | 2.26 | 17.8
